Entries after “also recorded” stand apart in the source; their conditions may differ.
Experiments:
[1] = Metal-chelating properties by UV-vis spectroscopy; conditions: compound 75 μM with CuSO4, FeSO4, FeCl3 or ZnCl2 150 μM in MeOH, 30 min
Procedure: The complexing studies for all the unprotected hybrids were carried out through a UV–vis spectroscopy assay with the wavelength ranging from 200 to 400 nm. The unprotected hybrids were dissolved in a 5% DMSO methanolic solution (3 mM). This solution was diluted with methanol to 150 µM. 2 ml of the 150 µM solution were mixed with 2 ml of methanol to record the spectra of the hybrids alone, or with 2 ml of the salts solution (300 µM). Then, the absorption spectra of the antioxidants (75 μM) alone or in the presence of CuSO4, FeSO4, FeCl3 or ZnCl2 (150 μM) mixed for 30 min in methanol at room temperature were recorded in a 1 cm quartz cell.

SH-SY5Y cells [2] = assay: MTT cell viability assay; assay type: cell-based, human; conditions: for IC50: Homo sapiens, neurotoxic concentration, SH-SY5Y; for Effect on cell viability: 0.25–100 μM, 24 h
Excerpt: The MTT test is based on the observation that live cells can reduce the water-soluble yellow tetrazolium salt [3-(4,5-dimethylthiazol-2-yl)-2,5-diphenyltetrazolium bromide] into water-insoluble blue/magenta formazan crystals, by dehydrogenase of the active mitochondria. Dissolved formazan crystals can be quantified using a spectrophotometer and the values obtained are in direct correlation to the number of metabolically active cells. For this reason, this colorimetric assay is used to evaluate cell viability.
The MTT assay was performed as reported in literature ([Corasaniti et al., 2007]). […].
The optical density was measured at wavelengths of 540 and 690 nm using a spectrophotometer (X MARK Spectrophotometer Microplate Bio-Rad).

[3] = Cupric ion reducing antioxidant capacity (CUPRAC); conditions: for TEAC: Supplementary Table 1, ε of compound divided by ε of Trolox; for CUPRAC: Trolox equivalent, 2% M-β-CD, A450 after 40 min
Procedure: The CUPRAC test was performed as reported by [Ozyürek et al. (2008)] on the new compounds in the unacetylated form.
CuCl2 solution 10 mM, was prepared by dissolving […] CuCl2 in water, and diluting to 250 ml. Neocuproine (Nc) solution 7.5 mM, was prepared by dissolving 15 mg of neocuproine in 10 ml of absolute EtOH. Ammonium acetate 1.0 M was prepared by dissolving 19.27 g of NH4Ac in 250 ml of water. The cyclodextrin (2% M-β-CD) stock solution was prepared in water-acetone (9:1 v/v). The standard solution of Trolox 1 mM was prepared in 2% M-β-CD. All working solutions of antioxidant 1 mM were freshly prepared in 2% M-β-CD.
1 ml of Cu(II) + 1 ml of Nc + 1 ml of NH4Ac buffer + x mL of antioxidant solution + (1.1 − x) 2% M-β-CD in 1:9 water–acetone mixture (v/v); total volume = 4.1 ml, measure A 450 against a reagent blank after 40 min of reagent addition at room temperature.
The Trolox equivalent antioxidant capacity (TEAC) is defined as the millimolar concentration of a Trolox solution having the antioxidant capacity equivalent to a 1.0 mM solution of the substance under investigation. The […] values were simply calculated by dividing the molar absorptivity ε of the species under investigation by that of Trolox under corresponding conditions. The concentration linearity ranges for all the antioxidants tested are reported in the Supplementary Material (See Supplementary Table S1).

SH-SY5Y cells [4] = assay: ROS measurement (H2DCF-DA, flow cytometry) after H2O2 insult; assay type: cell-based, human; conditions: for ROS measurement 250 nM / ROS measurement 500 nM / ROS measurement 1 μM / ROS measurement 10 μM: fluorescence relative to control = 1, H2O2 (100 μM) alone 6.31, 24 h + 3 h; for ROS measurement 250 nM: hybrid 250 nM; for ROS measurement 500 nM: hybrid 500 nM; for ROS measurement 1 μM: hybrid 1 μM; for ROS measurement 10 μM: hybrid 10 μM
Procedure: H2DCF-DA is a molecule that easily diffuses into cells and, through intracellular esterases, is split into H2DCF following the loss of the acetate group. H2DCF remains trapped within cells and is oxidized by intracellular ROS to form the highly fluorescent DCF compound. Spectrofluorimetric quantification of the DCF probe, provides the content of the ROS in the cell.
[…]. Subsequently, the growth medium was replaced with a fresh phenol red-free medium containing H2DCF-DA (25 μM). After 30 min at 37°C, the cells were washed twice to remove the extracellular H2DCF-DA, centrifuged, re-suspended in PBS, exposed to H2O2 (100 μM, 30 min) and the fluorescence was evaluated by flow cytometric analysis using a FACS Accury laser flow cytometer (Becton Dickinson). The results were expressed by setting the control equal to 1 and reporting all other values. H2O2 alone was used as a positive control.

[5] = Oxygen radical absorbance capacity (ORAC) by fluorescence; conditions: for ORAC: means ± SEM of three independent observations, sample 10 μM in 7% RMCD solution
Procedure: The measurement temperature was set at 37°C. A regression equation was built by comparing the net area under the FL decay curve and the Trolox concentration according to the following equation: Y(µM Trolox)=a+bX(AUC−n) and the final ORACFL values were expressed as Trolox equivalents (μmol g^−1).

SH-SY5Y cells [6] = assay: MTT cell viability after H2O2 damage (neuroprotection); assay type: cell-based, human; conditions: hybrids 21 h, then H2O2 100 μM 3 h; vs hydrogen peroxide alone

| Compound | Metal chelating activity [1] | IC50 (SH-SY5Y cells [2]) [µM] | TEAC [3] | CUPRAC [3] | ROS measurement 250 nM (SH-SY5Y cells [4]) | ROS measurement 500 nM (SH-SY5Y cells [4]) | ROS measurement 1 μM (SH-SY5Y cells [4]) | ROS measurement 10 μM (SH-SY5Y cells [4]) | ORAC [5] [µmol trolox l^−1] | Reduction of ROS amount (in words) (SH-SY5Y cells [4]; H2O2 100 μM as toxic insult) | Protective effect on cell viability against H2O2 damage (SH-SY5Y cells [6]) | Reduction of ORAC antioxidant capacity compared to HT1 [5] [times] | Effect on cell viability (SH-SY5Y cells [2]) |
| --- | --- | --- | --- | --- | --- | --- | --- | --- | --- | --- | --- | --- | --- |
| O=C(OCCc1ccc(O)c(O)c1)C1CCN(Cc2ccccc2)CC1 [HT1] | able to chelate only Copper (II) efficiently; also recorded: showed metal chelating properties | 50 | 3,36 | 3.36 (mmol of trolox)/(mmol of tested compound) | 6.18 | 5.25 | 5.47 | 5.49 | 21.2 ± 1.6 | – | – | – | – |
| CC(=O)Oc1ccc(CCOC(=O)C2CCN(Cc3ccccc3)CC2)cc1OC(C)=O [HT1a] | – | > 50 | – | – | 2.99 | 2.63 | 2.51 | 2.66 | – | – | – | – | – |
| O=C(OCCc1cc(O)c(O)cc1[N+](=O)[O-])C1CCN(Cc2ccccc2)CC1 [HT2] | chelates all the metal cations; also recorded: showed metal chelating properties | > 50 | 2,77 | 2.77 (mmol of trolox)/(mmol of tested compound) | 2.21 | 1.97 | 1.12 | 1.38 | 7.6 ± 0.2 | the more effective one to reduce the ROS amount to the physiological values | statistically significant increase in cell viability; also recorded: able to attenuate cell injury against oxidative stress | ~3 | – |
| COc1cc(CCOC(=O)C2CCN(Cc3ccccc3)CC2)ccc1O [HT3] | – | > 25 | 1,80 | 1.80 (mmol of trolox)/(mmol of tested compound) | 3.68 | 2.91 | 2.18 | 2.76 | 45.2 ± 3.6 | – | – | – | – |
| COc1cc(CCOC(=O)C2CCN(Cc3ccccc3)CC2)ccc1OC(C)=O [HT3a] | – | > 10 | – | – | 2.27 | 1.94 | 1.58 | 2.13 | – | – | statistically significant increase in cell viability; also recorded: able to attenuate cell injury against oxidative stress | – | reduction in cell viability was found for compounds HT3a and HT4a at concentrations higher than 10 μM |
| O=C(OCCc1ccc(O)cc1)C1CCN(Cc2ccccc2)CC1 [HT4] | – | > 25 | 0,99 | 0.99 (mmol of trolox)/(mmol of tested compound) | 3.9 | 3.2 | 3.64 | 3.67 | 23.0 ± 2.0 | – | – | – | – |
| CC(=O)Oc1ccc(CCOC(=O)C2CCN(Cc3ccccc3)CC2)cc1 [HT4a] | – | > 10 | – | – | 2.34 | 2.77 | 2.94 | 3.01 | – | – | statistically significant increase in cell viability | – | reduction in cell viability was found for compounds HT3a and HT4a at concentrations higher than 10 μM |
| OCCc1ccc(O)c(O)c1 [HT, hydroxytyrosol, reference compound] | – | – | 2,82 | 2.82 (mmol of trolox)/(mmol of tested compound) | – | – | – | – | 38.8 ± 4.4 | – | – | – | – |
| Cc1c(C)c2c(c(C)c1O)CCC(C)(C(=O)O)O2 (stereo not shown) [Trolox, reference compound] | – | – | 1 | 1 (mmol of trolox)/(mmol of tested compound) | – | – | – | – | – | – | – | – | – |
